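Following 48 hours of exposure in 96-well plates, responses at five concentrations were used to interpolate endpoints linearly. At the GI50, growth is halved. TGI denotes the concentration required for complete inhibition of growth.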
Experiments:
Assay in all cases: inhibition of tumour cell growth, NCI panel, 48 h; in the data active = GI50 below about 0.43 µM; inactive = the rest
OVCAR-4 ovarian = system: OVCAR-4 ovarian
EKVX NSCLC = system: EKVX NSCLC
HS 578T breast = system: HS 578T breast
CCRF-CEM leukemia = system: CCRF-CEM leukemia
PC-3 prostate = system: PC-3 prostate
LOX IMVI melanoma = system: LOX IMVI melanoma
MALME-3M melanoma = system: MALME-3M melanoma
NCI-H460 lung = system: NCI-H460 lung
BT-549 breast = system: BT-549 breast
COLO 205 colon = system: COLO 205 colon
SK-OV-3 ovarian = system: SK-OV-3 ovarian
MDA-MB-231 breast = system: MDA-MB-231 breast
KM12 colon = system: KM12 colon
SF-295 CNS = system: SF-295 CNS
T-47D breast = system: T-47D breast
RXF 393 renal = system: RXF 393 renal
UACC-257 melanoma = system: UACC-257 melanoma
IGROV1 ovarian = system: IGROV1 ovarian
RPMI-8226 leukemia = system: RPMI-8226 leukemia
UACC-62 melanoma = system: UACC-62 melanoma
MOLT-4 leukemia = system: MOLT-4 leukemia
CAKI-1 renal = system: CAKI-1 renal
SF-268 CNS = system: SF-268 CNS
NCI-H23 lung = system: NCI-H23 lung
SNB-75 CNS = system: SNB-75 CNS
SK-MEL-5 melanoma = system: SK-MEL-5 melanoma
HOP-62 NSCLC = system: HOP-62 NSCLC
SR leukemia = system: SR leukemia
HCT-116 colon = system: HCT-116 colon

Cn1cc(/C=C2\C(=O)Nc3cccnc32)c2ccccc21
inactive: GI50 (OVCAR-4 ovarian) 24.8 µM | GI50 (EKVX NSCLC) 11.1 µM | GI50 (HS 578T breast) 8.58 µM | GI50 (CCRF-CEM leukemia) 16 µM | GI50 (PC-3 prostate) 22.9 µM | GI50 (LOX IMVI melanoma) 7.77 µM | GI50 (MALME-3M melanoma) 24.5 µM | GI50 (NCI-H460 lung) 16.4 µM | GI50 (BT-549 breast) > 25 µM | GI50 (COLO 205 colon) 20.6 µM | GI50 (SK-OV-3 ovarian) 17 µM | GI50 (MDA-MB-231 breast) 11.1 µM | GI50 (KM12 colon) 0.885 µM | GI50 (SF-295 CNS) > 25 µM | GI50 (T-47D breast) > 17.1 µM | GI50 (RXF 393 renal) 10.8 µM | GI50 (UACC-257 melanoma) 13.9 µM | GI50 (IGROV1 ovarian) 6.82 µM | GI50 (RPMI-8226 leukemia) > 25 µM | GI50 (UACC-62 melanoma) 8.82 µM | GI50 (MOLT-4 leukemia) 11.5 µM | GI50 (CAKI-1 renal) 10.2 µM | GI50 (SF-268 CNS) > 21.7 µM | GI50 (NCI-H23 lung) 10.9 µM | GI50 (SNB-75 CNS) > 19.6 µM | GI50 (SK-MEL-5 melanoma) 9.2 µM | GI50 (HOP-62 NSCLC) > 25 µM | GI50 (SR leukemia) > 25 µM | GI50 (HCT-116 colon) 14.7 µM
> 25 µM: TGI (OVCAR-4 ovarian) | TGI (EKVX NSCLC) | TGI (HS 578T breast) | TGI (CCRF-CEM leukemia) | TGI (PC-3 prostate) | TGI (LOX IMVI melanoma) | TGI (MALME-3M melanoma) | TGI (NCI-H460 lung) | TGI (BT-549 breast) | TGI (COLO 205 colon) | TGI (SK-OV-3 ovarian) | TGI (MDA-MB-231 breast) | TGI (KM12 colon) | TGI (SF-295 CNS) | TGI (T-47D breast) | TGI (RXF 393 renal) | TGI (UACC-257 melanoma) | TGI (IGROV1 ovarian) | TGI (RPMI-8226 leukemia) | TGI (UACC-62 melanoma) | TGI (MOLT-4 leukemia) | TGI (CAKI-1 renal) | TGI (SF-268 CNS) | TGI (NCI-H23 lung) | TGI (SNB-75 CNS) | TGI (SK-MEL-5 melanoma) | TGI (HOP-62 NSCLC) | TGI (SR leukemia) | TGI (HCT-116 colon)

— PubChem BioAssay (NCI)
